Results from PubChem BioAssay AID1963833 (Molecular Pharmacology Branch, DTP, NCI, 2024).

Test system: 883617-216-R-J1-PDC complex spheroid viability
Assay: Anticancer human tumor 883617-216-R-J1-PDC patient-derived bladder carcinoma cell line growth inhibition [POLQ]
Details: for IC50: curve of first compound; for viability, T/C: stronger effect = lower value
Procedure: Multicellular complex tumor spheroid response to Polymerase (POL) inhibitors (novobiocin, ART-558, RP6685) in combination with a variety of drugs and investigational agents in selected tumor cell lines
The POL inhibitors (novobiocin, ART-558, and RP6685) were evaluated both individually and in combination with standard of care and investigational anticancer small molecules within a complex spheroid model of solid tumors. . Complex spheroids include a stromal component modeled by human endothelial cells (HUVEC) and fibroblasts modeled by human mesenchymal stem cells (MSCs). The concentration ranges selected for each drug and investigational agent were based upon clinically achievable concentrations if the clinical Cmax of the agent was known.
Compounds. The drugs and investigational agents: novobiocin (NSC847541), ART-558 (NSC835418), RP-6685 (NSC848927), peposertib (NSC802822), ceralasertib (NSC780249), elimusertib (NSC800525), camonsertib (NSC841442), AZD-1390 (NSC803789), olaparib (NSC753686), talazoparib (NSC767125), rucaparib (NSC756644), sotorasib (NSC818433), MRTX-1133 (NSC836407), SN-38 (NSC673596), topotecan (NSC609699), epotoside (NSC141540), doxorubicin (NSC123127), gemcitabine (NSC613327), 5-fluorouracil (NSC19893), paclitaxel (NSC125973), vemurafenib (NSC761431), MSA-2 (NSC828583), SN-011 (NSC837082), adavosertib (NSC754352), prexasertib (NSC758257), carboplatin (NSC241240) and oxaliplatin (NSC266046), were obtained from the National Cancer Institute (NCI) Developmental Therapeutics Program Chemical Repository (21). The FDA-approved anticancer drug set is available from the Developmental Therapeutics Program at https://dtp.cancer.gov/organization/dscb/obtaining/. […] The stock solutions were prepared in dimethyl sulfoxide (DMSO, Sigma-Aldrich, St. Louis, MO, cat. D2650), except for the platinum compounds which were prepared in saline (Quality Biological, Gaithersburg, MD, cat. 114-055-101), at 800-fold the tested concentration and stored at -70 degrees C prior to their use. All drugs and investigational agents were tested over a range starting from a high concentration at or near the clinical Cmax and decreasing in half-log increments. If the clinical Cmax for an agent had not been determined, the highest concentration tested was 10 microM, except for SN-38, which was tested at a high concentration of 1 microM.
Cell Culture. All cells were maintained in an incubator at 37 degrees C and 5% CO2 with 95% humidity. The PDC lines were cultured according to standard operating procedures established by the NCI PDMR (https://pdmr.cancer.gov). Table 3 of the manuscript, lists the cell lines along with the number of the three cell types plated to form the mct-spheroids and media for tumor cell growth. After thawing, all PDC lines, except 997537-175-T-J1-PDC and 415267-285-R-J2-PDC, were cultured in Matrigel-coated flasks prepared with a working solution of 1X Ham's F-12 nutrient mix, without supplementation (Thermo Fisher Scientific, cat. 11765054), 100 U/mL penicillin-streptomycin (Thermo Fisher Scientific, cat. 15140122), and 2.5% Matrigel (Corning Inc., Corning, NY, cat. 354248) for the first three passages. The two PDC lines 997537-175-T-J1-PDC and 415267-285-R-J2-PDC were cultured on uncoated flasks. The 857933-349-R-J2-PDC line was cultured in 6C/Colon 1B media containing advanced DMEM/F-12 (Thermo Fisher Scientific, cat. 12634028), 10 mM HEPES (Thermo Fisher Scientific, cat. 15630080), 1X GlutaMAX supplement (Thermo Fisher Scientific, cat. 35050061), 0.1 mg/mL primocin (InvivoGen, San Diego, CA, cat. ant-pm-2), 10% defined fetal bovine serum, heat inactivated (HyClone Laboratories Inc., Logan, UT, cat. SH30070.03HI), 50% L-WRN conditioned media (ATCC, cat. CRL-3276), 1.25 mM N-Acetyl-L-cysteine (Sigma-Aldrich, cat. A9165), 10 mM nicotinamide (Sigma-Aldrich, cat. N0636), 1X B-27 supplement (Thermo Fisher Scientific, cat. 17504044), 1X N-2 supplement (Thermo Fisher Scientific, cat. […]
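Also: spheroids exposed to compounds for seven days before readout.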
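For viability, T/C in this document: 100% = DMSO vehicle control viability.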

C=CCn1c(=O)c2cnc(Nc3ccc(N4CCN(C)CC4)cc3)nc2n1-c1cccc(C(C)(C)O)n1 + COC1C(OC(N)=O)C(O)C(Oc2ccc3c(O)c(NC(=O)c4ccc(O)c(CC=C(C)C)c4)c(=O)oc3c2C)OC1(C)C
IC50 (second compound 0.0316 µM): 916 nM
IC50 (second compound 0.1 µM): 811 nM
IC50 (second compound 0.316 µM): 945 nM
IC50 (second compound 1 µM): 889 nM
IC50 (second compound 3.16 µM): 883 nM
IC50 (second compound 10 µM): 820 nM
viability, T/C (second compound 0.0316 µM, first compound 0.00316 µM): 113%
viability, T/C (second compound 0.0316 µM, first compound 0.01 µM): 97.9%
viability, T/C (second compound 0.0316 µM, first compound 0.0316 µM): 112%
viability, T/C (second compound 0.0316 µM, first compound 0.1 µM): 94.7%
viability, T/C (second compound 0.0316 µM, first compound 0.316 µM): 84.6%
viability, T/C (second compound 0.0316 µM, first compound 1 µM): 47%
viability, T/C (second compound 0.1 µM, first compound 0.00316 µM): 101%
viability, T/C (second compound 0.1 µM, first compound 0.01 µM): 91.9%
viability, T/C (second compound 0.1 µM, first compound 0.0316 µM): 98.9%
viability, T/C (second compound 0.1 µM, first compound 0.1 µM): 120%
viability, T/C (second compound 0.1 µM, first compound 0.316 µM): 85.9%
viability, T/C (second compound 0.1 µM, first compound 1 µM): 42%
viability, T/C (second compound 0.316 µM, first compound 0.00316 µM): 121%
viability, T/C (second compound 0.316 µM, first compound 0.01 µM): 99.8%
viability, T/C (second compound 0.316 µM, first compound 0.0316 µM): 104%
viability, T/C (second compound 0.316 µM, first compound 0.1 µM): 107%
viability, T/C (second compound 0.316 µM, first compound 0.316 µM): 77.8%
viability, T/C (second compound 0.316 µM, first compound 1 µM): 48.6%
viability, T/C (second compound 1 µM, first compound 0.00316 µM): 103%
viability, T/C (second compound 1 µM, first compound 0.01 µM): 95.2%
viability, T/C (second compound 1 µM, first compound 0.0316 µM): 105%
viability, T/C (second compound 1 µM, first compound 0.1 µM): 112%
viability, T/C (second compound 1 µM, first compound 0.316 µM): 92.2%
viability, T/C (second compound 1 µM, first compound 1 µM): 45.2%
viability, T/C (second compound 3.16 µM, first compound 0.00316 µM): 106%
viability, T/C (second compound 3.16 µM, first compound 0.01 µM): 101%
viability, T/C (second compound 3.16 µM, first compound 0.0316 µM): 98.6%
viability, T/C (second compound 3.16 µM, first compound 0.1 µM): 104%
viability, T/C (second compound 3.16 µM, first compound 0.316 µM): 90%
viability, T/C (second compound 3.16 µM, first compound 1 µM): 44.8%
viability, T/C (second compound 10 µM, first compound 0.00316 µM): 104%
viability, T/C (second compound 10 µM, first compound 0.01 µM): 87.1%
viability, T/C (second compound 10 µM, first compound 0.0316 µM): 105%
viability, T/C (second compound 10 µM, first compound 0.1 µM): 91.6%
viability, T/C (second compound 10 µM, first compound 0.316 µM): 84%
viability, T/C (second compound 10 µM, first compound 1 µM): 42.8%
